Values of other authors as cited in patent US20070141149A1, “Controlled-release pharmaceutical formulation” (priority 2003, published 2007).
Like-named read-outs stand apart in the source and are kept apart here.

Settings: orally administered

bioavailability (on an empty stomach): ~100% | bioavailability (taken during meals): decreased | cmax (taken during meals): decreased
Structure (SMILES): CCOc1ccccc1OCCN[C@H](C)Cc1ccc(OC)c(S(N)(=O)=O)c1 [tamsulosin]
